Structures can show the parent of a compound that is named as a salt.
system: double-stranded oligo probe (DNA); test: High-throughput screen of a compound library with the linear oligo probe (FRET ratio, 384 well plate); format: binding; conditions: not given
Experimental: A library of compounds was mixed with the oligo probe in 384 well plate format. (A) The fluorescence spectra of the probe were recorded on a plate reader as in FIG. 21 and the FRET ratio (Cy5/Cy3 intensity) was calculated. […] (B) A library consisting of 1600 compounds from FDA and internationally approved drugs was screened to detect potential intercalators that can be drug repositioning targets.
The molecular sensors were used in vitro according to the following: 1) The sensors were diluted in a NaCl solution (e.g., in a 50-100 mM NaCl solution) and 0.2% BSA solution to a concentration of 1 μM. This can be adjusted depending on the sensitivity of the fluorescence measurement device. 2) The fluorescence spectrum was measured using a fluorescence spectrophotometer, a plate reader, or any other ad-hoc means. […] 3) The molecular species was added to be characterized for DNA binding properties or to be tested for intercalating or groove binding ability. The appropriate sensor is used (e.g., a linear or flexible molecular sensor). The fluorescence spectrum was measured again using the same methods and settings. 4) The FRET ratio was compared for both the sensor alone and sensor plus tested molecule. The FRET ratio is calculated by dividing the peak intensity of the acceptor fluorescence by that of the donor fluorescence.

| Compound | FRET ratio |
| --- | --- |
| COc1ccc2c3c([nH]c2c1)C(C)=NCC3 [HARMALINE] | 0.646 |
| CC(C)(C#N)O[C@@H]1O[C@H](CO)[C@@H](O)[C@H](O)[C@H]1O [LINAMARIN] | 0.4228 |
| CCCCCCc1ccc(O)cc1O.Nc1c2ccccc2nc2ccccc12 [ACRISORCIN] | 0.2919 |
| CC(=O)Oc1cccc2c1C(=O)c1c(OC(C)=O)cc(C(=O)O)cc1C2=O [DIACERIN] | 0.7 |
| COc1ccc2nc3cc(Cl)ccc3c(Nc3cc(CN4CCCC4)c(O)c(CN4CCCC4)c3)c2n1.O=P(O)(O)O.O=P(O)(O)O.O=P(O)(O)O.O=P(O)(O)O [PYRONARIDINE TETRAPHOSPHATE] | 0.3325 |
| O=c1n(Cl)c(=O)n(Cl)c(=O)n1Cl [SYMCLOSENE] | 0.1489 |
| CCOP(=S)(OCC)Oc1nc(Cl)c(Cl)cc1Cl [CHLORPYRIFOS] | 0.5126 |
| MODALINE SULFATE | 0.1375 |

same assay, conditions: linear oligo probe, 384 well plate, Cy5/Cy3 intensity; library peak ˜1.1, a small ratio indicates intercalation

| Compound | FRET ratio |
| --- | --- |
| COc1cc2nc(N(C)CCCNC(=O)C3CCCO3)nc(N)c2cc1OC (stereo not shown) [ALFUZOSIN HYDROCHLORIDE] | 0.6784 |
| C=C[C@H]1C[N@@]2CC[C@H]1C[C@@H]2[C@@H](O)c1ccnc2ccc(OC)cc12 [QUINIDINE GLUCONATE] | 0.9333 |
| NC(N)=NC(=O)c1nc(Cl)c(N2CCCCCC2)nc1N [N,N-HEXAMETHYLENEAMILORIDE] | 0.38 |
| c1ccc2c(CC3=NCCN3)cccc2c1 [NAPHAZOLINE HYDROCHLORIDE] | 0.8789 |
| Cc1ccc(S(=O)(=O)[N-]Cl)cc1.[Na+] [CHLORAMINE-T] | 0.3985 |
| NC(CO)C(=O)NNCc1ccc(O)c(O)c1O (stereo not shown) [BENSERAZIDE HYDROCHLORIDE] | 0.7832 |
| N=C(N)N [GUANIDINE HYDROCHLORIDE] | 0.451 |
| OCCN1CCN(CCCN2c3ccccc3Sc3ccc(Cl)cc32)CC1 [PERPHENAZINE] | 0.9495 |
| CC(=O)c1ccc2c(c1)N(CCCN(C)C)c1ccccc1S2 [ACEPROMAZINE MALEATE] | 0.8037 |
| COc1ccc(-c2cc(=O)c3ccccc3o2)cc1 [4′-METHOXYFLAVONE] | 0.543 |
| COc1cc2c(cc1OC)-c1cc3ccc(OC)c(OC)c3c[n+]1CC2 [PALMATINE CHLORIDE] | 0.5141 |
| COc1ccc2cc3[n+](cc2c1OC)CCc1cc2c(cc1-3)OCO2 [BERBERINE CHLORIDE] | 0.4262 |
| O=C1c2c(O)cccc2C([C@@H]2O[C@H](CO)[C@@H](O)[C@H](O)[C@H]2O)c2cc(CO)cc(O)c21 (stereo partly shown) [ALOIN] | 0.7719 |
| COc1c2occc2cc2ccc(=O)oc12 [METHOXSALEN] | 0.9338 |
| LUPEOL ACETATE | 0.38 |
| CN1CCc2cccc3c2[C@H]1Cc1ccc(O)c(O)c1-3 [APOMORPHINE HYDROCHLORIDE] | 0.9228 |
| CO/N=C1\CN(c2nc3c(cc2F)c(=O)c(C(=O)O)cn3C2CC2)CC1CN (stereo not shown) [GEMIFLOXACIN MESYLATE] | 0.9051 |
| COc1cc(NC(C)CCCN)c2ncccc2c1 (stereo not shown) [PRIMAQUINE PHOSPHATE] | 0.8618 |
| Nc1c2ccccc2nc2ccccc12 [AMINACRINE] | 0.2941 |
| COc1cc2nc(N3CCN(C(=O)c4ccco4)CC3)nc(N)c2cc1OC [PRAZOSIN HYDROCHLORIDE] | 0.818 |
| C[C@@H]1O[C@@H](O[C@H]2[C@H](Oc3cc(O)c4c(=O)cc(-c5ccc(O)cc5)oc4c3)O[C@H](CO)[C@@H](O)[C@@H]2O)[C@H](O)[C@H](O)[C@H]1O [RHOIFOLIN] | 0.6817 |
| CN1[C@@H]2CC[C@H]1C[C@@H](OC(=O)c1c[nH]c3ccccc13)C2 [TROPISETRON HYDROCHLORIDE] | 0.7228 |
| CC[C@H]1CN2CC[C@H]1C[C@@H]2[C@@H](O)c1ccnc2ccc(OC)cc12 [HYDROQUINIDINE] | 0.7512 |
| CCOc1cc(C=O)ccc1O [ETHYL VANILLIN] | 0.9212 |
| COc1cc2nc(N3CCN(C(=O)C4COc5ccccc5O4)CC3)nc(N)c2cc1OC (stereo not shown) [DOXAZOSIN MESYLATE] | 0.8089 |
| Nc1c2c(nc3ccccc13)CCCC2 [TACRINE HYDROCHLORIDE] | 0.6067 |
